The record followed here is patent publication US6838574B1, “Dicarba-closo-dodecarborane derivatives” (Institute of Medicinal Molecular Design, Inc., priority 1999, dated 2005).

Assay [1] deals with T1, rat estrogen receptor (pCI-rER α) (Rattus norvegicus, UniProt P06211).
T1 construct: expressed in transfected cells; host or cells: COS-1 cells
T1 sequence (P06211 1-600): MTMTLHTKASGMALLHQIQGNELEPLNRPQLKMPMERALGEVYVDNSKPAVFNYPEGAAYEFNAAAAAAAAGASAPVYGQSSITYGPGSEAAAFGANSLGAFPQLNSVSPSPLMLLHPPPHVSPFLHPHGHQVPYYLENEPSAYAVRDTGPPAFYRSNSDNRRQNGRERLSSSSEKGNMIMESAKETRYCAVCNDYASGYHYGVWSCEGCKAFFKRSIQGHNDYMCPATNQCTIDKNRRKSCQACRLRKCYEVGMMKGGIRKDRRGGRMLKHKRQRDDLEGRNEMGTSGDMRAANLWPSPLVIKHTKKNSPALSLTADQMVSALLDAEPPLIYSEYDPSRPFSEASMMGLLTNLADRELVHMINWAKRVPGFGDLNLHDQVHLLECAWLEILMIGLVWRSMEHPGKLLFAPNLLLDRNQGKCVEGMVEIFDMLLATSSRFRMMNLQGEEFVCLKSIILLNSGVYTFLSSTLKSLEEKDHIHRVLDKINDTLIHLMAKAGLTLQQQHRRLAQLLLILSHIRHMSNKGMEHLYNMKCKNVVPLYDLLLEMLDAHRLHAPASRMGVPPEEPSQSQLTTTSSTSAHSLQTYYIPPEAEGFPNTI
The assay can be described thus: Estrogenic activity, estrogen receptor-dependent luciferase reporter gene assay in COS-1 cells. The format is cell-based. As to conditions: for Relative Activity (%) at the Same Amount of β-estradiol: β-estradiol = 100; for EC50: 50% of luciferase activity of β-estradiol at 10 nM (=100), COS-1. The method, then:
As estrogenic activity, estrogen receptor-dependent transcriptional activation abilities of the test compounds were determined by the r porter gene assay using luciferase gene. COS-1 cells were cultured using a DMEM medium containing an antibiotics and 5% bovine fetal serum in the wells of 24 well plates (cell density: 5 to 6×10^4/well) at 37° C. for one night under 5% carbon dioxide. On the next day, the medium was changed to DMEM medium not containing Phenol Red. Using gene introducing reagent Tfx-20 (Promega), reporter plasmid EREx3-pGL-TK, in which rat estrogen receptor expression plasmid pCI-rER α and an estrogen responsive sequence were placed upstream of the luciferase gene, and β-galactosidase expression plasmid pCMV β used as an internal standard were introduced into cells. The cells were cultured for 2 h, and the medium was changed to DMEM not containing Phenol Red but containing active charcoal-treated serum.
The culture was added with each test compound dissolved in ethanol at various concentrations (final ethanol concentration at 0.5%) and then cultivation was continued at 37° C. for one night under 5% carbon dioxide. On the next day, the cells were lysed and enzymatic activity of luciferase expressed was measured by using a chemiluminometer. The values were standardized based on galactocidase enzymatic activity, and then compared with the values obtained by experiments using no test compound and used as values of activity at various concentrations. […] The estrogenic activities in the table are shown as concentrations for 50% activity (EC50 values) which give 50% activities relative to luciferase activity regarded as 100 that is expressed by treatment with the control compound β-estradiol at 10 nM. Each compound tested in this experiment has a high estrogenic activity.
Estrogenic activities, i.e., estrogen receptor-dependent transcriptional abilities of test compounds, were determined by the reporter gene assay using the luciferase gene in the same manner as those described above. In this experiment (Table 6), estrogenic activities at 0.1 nM, 1 nM, and 10 nM of the test compounds are shown as relative values in view of the luciferase activity regarded as 100 which is expressed at the same amounts of β-estradiol as a control, and intensities of activities were compared. Each compound tested in this experiment has high estrogenic activity.

The test system of assay [2] is human promyelocytic leukemia cell strain HL-60. The assay can be described thus: HL-60 differentiation induction, test compound alone. The conditions noted are these: for percentage of differentiated cells, no coexisting compound: HL-60, 4 days, control <10. Format: cell-based. The protocol:
Inhibitory activity against proliferation of human promyelocytic leukemia cell strain HL-60 was evaluated an index of anti-leukemia activity. Subcultured HL-60 cells were seeded with the initial cell number of 8×10^4 cells/ml in the RPMI 1640 medium containing bovine fetal serum and an antibiotics. Each test compound was added at various concentrations and the mixture was cultured at 37° C. Four days later, cell number was counted. Anti-leukemia activity of each test compound was shown in the tables as percentage values of differentiated cells, which cells were not differentiated in the absence of the test drug, […] observation and NBT reducing ability of the cells as indexes.

Setting [3] is: relative activity experiment (Table 6).

What is called EC50 is the concentration needed to bring the measured effect to its halfway point.

“1-(3-hydroxyphenyl)-1,12-dicarba-closo-dodecaborane [BE300]”: the “Relative Activity (%) at the Same Amount of β-estradiol” value (from here on “Relative Activity (%)”) in assay [1] (1 nM) turned out to be 20%; in assay [1] (10 nM), 59%.

As to “1-(3-hydroxypropyl)-12-(4-hydroxyphenyl)-1,12-dicarba-closo-dodecaborane [BE123]”, the “Relative Activity (%)” value came out at 29% in assay [1] (0.1 nM), 56% in assay [1] (1 nM) and 79% in assay [1] (10 nM).

Regarding “1-(3-hydroxyphenyl)-1,7-dicarba-closo-dodecaborane [BE400]”, the “Relative Activity (%)” value in assay [1] (1 nM) was determined as 11%; in assay [1] (10 nM), 38%.

The substance “1-amino-12-(4-hydroxyphenyl)-1,12-dicarba-closo-dodecaborane [BE140]” had a concentration for a half-maximal effect (EC50) in assay [1] of 0.5 nM. In addition, in assay [1] (EC50 experiment (Table 5)), the “estrogenic activity compared with β-estradiol (in words)” value is given as “much higher activity than that of β-estradiol”.

On to “1,12-bis(4-hydroxyphenyl)-1,12-dicarba-closo-dodecaborane [BE160]”, for which it took 1 nM to reach a half-maximal effect in assay [1] (EC50).

With “1-hydroxy-7-(4-hydroxyphenyl)-1,7-dicarba-closo-dodecaborane [BE219]”, the “Relative Activity (%)” value in assay [1] (1 nM) amounted to 40%; in assay [1] (10 nM), 71%.

As for “1-(2-hydroxyethyl)-12-(4-(hydroxyphenyl)-1,12-dicarba-closo-dodecaborane [BE122]”, the “Relative Activity (%)” value amounted to 83% in assay [1] (0.1 nM), 98% in assay [1] (1 nM) and 104% in assay [1] (10 nM).

As for “1-(3-hydroxypropyl)-7-(3-hydroxyphenyl)-1,7-dicarba-closo-dodecaborane [BE423]”, the “Relative Activity (%)” value in assay [1] (1 nM) is on record as less than 10%; in assay [1] (10 nM), 15%.

As to “1-methoxycarbonyl-12-(4-hydroxyphenyl)-1,12-dicarba-closo-dodecaborane [BE110]”, the concentration for a half-maximal effect (EC50) in assay [1] turned out to be 2 nM.

In the case of “1-(3-hydroxypropyl)-7-(4-hydroxyphenyl)-1,7-dicarba-closo-dodecaborane [BE223]”, the “Relative Activity (%)” value in assay [1] (1 nM) stood at 20%; in assay [1] (10 nM), 51%.

On to “1-(2-hydroxyethyl)-7-(4-hydroxyphenyl)-1,7-dicarba-closo-dodecaborane [BE222]”, for which the figures for the “Relative Activity (%)” value in assay [1] (1 nM) and in assay [1] (10 nM) were 38% and 85%, respectively.

As to “1-(2-hydroxymethyl)-7-(3-hydroxyphenyl)-1,7-dicarba-closo-dodecaborane [BE420]”, the figures for the “Relative Activity (%)” value in assay [1] (1 nM) and in assay [1] (10 nM) were 18% and 59%, respectively.

As for “1-(3-hydroxypropyl)-12-(3-hydroxyphenyl)-1,12-dicarba-closo-dodecaborane [BE323]”, the “Relative Activity (%)” value came to 12% in assay [1] (1 nM) and 31% in assay [1] (10 nM).

On to “1-hydroxy-12-(4-hydroxyphenyl)-1,12-dicarba-closo-dodecaborane [BE119]”, for which the entries for the “Relative Activity (%)” value in assay [1] (0.1 nM), in assay [1] (1 nM) and in assay [1] (10 nM) were 133%, 132% and 120%, respectively. Moreover, the “estrogenic activity compared with β-estradiol (in words)” value in assay [1] (setting [3]) is reported as “much higher activities than that of β-estradiol”.

As for “1-(2-hydroxymethyl)-12-(3-hydroxyphenyl)-1,12-dicarba-closo-dodecaborane [BE320]”, the entries for the “Relative Activity (%)” value in assay [1] (0.1 nM), in assay [1] (1 nM) and in assay [1] (10 nM) were 116%, 127% and 127%, respectively. Moreover, the “estrogenic activity compared with β-estradiol (in words)” value in assay [1] (setting [3]) was “much higher activities than that of β-estradiol”.

For “4-[4-(2-propyl-1,2-dicarba-closo-dodecaboran-1-yl)phenylamino]benzoic acid [BR403]”, the “differentiation inducing activity at low concentration (in words)” value in assay [2] (0.01 μM test compound, HL-60) was “activities were maintained”. In addition, the “percentage of differentiated cells, no coexisting compound” value is reported as 84% in assay [2] (test compound 0.01 μM); 82% in assay [2] (test compound 1 μM, morphology and NBT reducing ability). Besides, the “differentiation inducing activity (in words)” value in assay [2] (test compound alone, HL-60) is on record as “strong differentiation inducing activities”.

As to “1-hydroxy-12-(3-hydroxy phenyl)-1,12-dicarba-closo-dodecaborane [BE319]”, the “Relative Activity (%)” value in assay [1] (1 nM) was determined as 53%; in assay [1] (10 nM), 72%.

With “1-hydroxy-7-(3-hydroxyphenyl)-1,7-dicarba-closo-dodecaborane [BE419]”, the “Relative Activity (%)” value in assay [1] (1 nM) is recorded as 14%; in assay [1] (10 nM), 38%.

In assay [1], “1-hydrocarbonyl-12-(4-hydroxyphenyl)-12-dicarba-closo-dodecaborane [BE130]” came in with a concentration giving a half-maximal response (EC50) of 10 nM.

In the case of “1-(4-hydroxyphenyl)-1,7-dicarba-closo-dodecaborane [BE200]”, the “Relative Activity (%)” value stood at 45% in assay [1] (1 nM) and 72% in assay [1] (10 nM). Also, in assay [1], the EC50 was found to be 2 nM.

In assay [1], “1-hydroxyethyl-12-(4-hydroxyphenyl)-1,12-dicarba-closo-dodecaborane [BE121]” returned an EC50 of 1 nM. Further, the “estrogenic activity compared with β-estradiol (in words)” value in assay [1] (EC50 experiment (Table 5)) is listed as “much higher activity than that of β-estradiol”.

Turning to “1-hydroxymethyl-12-(4-hydroxyphenyl)-1,12-dicarba-closo-dodecaborane [BE120]”, the “Relative Activity (%)” value in assay [1] (0.1 nM) came out at 212%; in assay [1] (1 nM) it was 163%; in assay [1] (10 nM), 126%. This substance also came in with an EC50 in assay [1] of 0.05 nM. The “estrogenic activity compared with β-estradiol (in words)” value is “much higher activity than that of β-estradiol” in assay [1] (EC50 experiment (Table 5)) and “much higher activities than that of β-estradiol” in assay [1] (setting [3]).

Consider “1-(2-hydroxyethyl)-7-(3-hydroxyphenyl)-1,7-dicarba-closo-dodecaborane [BE422]”, for which the “Relative Activity (%)” value came to 11% in assay [1] (1 nM) and 24% in assay [1] (10 nM).

“1-(2-hydroxyethyl)-12-(3-hydroxyphenyl)-1,12-dicarba-closo-dodecaborane [BE322]”: the “Relative Activity (%)” value in assay [1] (1 nM) is 43%; in assay [1] (10 nM), 85%.

Consider “1-(4-hydroxyphenyl)-1,12-dicarba-closo-dodecaborane [BE100]”, for which the entries for the “Relative Activity (%)” value in assay [1] (0.1 nM), in assay [1] (1 nM) and in assay [1] (10 nM) were 51%, 63% and 82%, respectively. This substance registered an EC50 in assay [1] of 0.7 nM. In addition, in assay [1] (EC50 experiment (Table 5)), the “estrogenic activity compared with β-estradiol (in words)” value was “much higher activity than that of β-estradiol”.

“1,7-bis(4-hydroxyphenyl)-1,7-dicarba-closo-dodecaborane [BE260]” had an EC50 in assay [1] of 1 nM.
